Source: US9724388B2, “FGF-18 compound dosing regimen” (MERCK PATENT GMBH, priority 2014, dated 2017)
Like-named read-outs stand apart in the source and are kept apart here.

Experiments:
[1] = tested on: medial meniscal tear in the right knee joint; format: in vivo, rat; settings: for swelling scores vs vehicle controls: days 24-29, 31, and 36-43
Protocol: Male Lewis rats underwent surgery to induce a medial meniscal tear in the right knee joint. Animals were dosed i.a. with FGF-18 (10 μg/joint) on days 21, 28, and 35 and dosed orally with diclofenac (either 1 mg/kg or 3 mg/kg) or vehicle on days 21-23, 28-30, and 35-37, then terminated on day 42 or day 63. Serum was collected and evaluated for alpha 2 macroglobulin (α2MG) levels on days −3, 21, 42, and 63. α2MG is an inflammation serum biomarker. The link between α2MG and inflammation has already been shown (Kuribayashi et al., 2013).

OA symptoms = settings: Chevalier et al., 2009, cited from earlier work
[2] = tested on: Primary articular porcine chondrocytes; experiment: Porcine chondrocyte proliferation with or without IL1α challenge; format: cell-based, pig; settings: for restoration of rhFGF-18 proliferative activity in IL1α-challenged chondrocytes: anakinra 100 ng/mL with rhFGF-18 100 ng/mL, IL1α 10 ng/mL, direct and delayed treatments
Protocol: Porcine chondrocytes were isolated from the cartilage of a femoral head of a pig hip (pigs were approximately one year old). After dissection of the joints, the cartilage was harvested and digested 45 minutes with collagenase 0.25% (1/10 dilution of collagenase NBG4 2.5% in HAM's F12) at room temperature. The loosened cells were discarded and the cartilage further digested overnight with collagenase 0.1% (1/25 dilution of collagenase NBG4 2.5% in HAM's F12) at 37° C. to extract the chondrocytes. For this study, the chondrocytes were cultured in monolayer.
Primary articular porcine chondrocytes were stimulated or not with 10 ng/mL IL1α and were either treated immediately or 6 hours later with anakinra 100 ng/mL and/or trFGF-18 100 ng/mL. Each condition was performed in 4 or 6-plicates. As a control, cells were also cultured with anakinra alone, trFGF-18 alone or in the absence of any treatment (medium).
Pre-culture: After cell isolation porcine chondrocytes were inoculated at 20,000 cells/cm^2 and cultivated for one week in complete HAM's F12. Cells were then harvested with accutase, counted and used as described below.
For cells treated directly with anakinra: Chondrocytes were inoculated in a 24-well plate at 15,000 cells/well in 0.5 mL of complete HAM's F12. Then 0.25 mL of trFGF-18 400 ng/mL and/or 0.25 mL of anakinra 400 ng/mL were added to the cells. In the challenged samples, 10 μL of IL1α at 1,000 ng/mL were also added to the cells. trFGF-18, anakinra and IL1α were all diluted in complete HAM's F12. The final volume in the culture well was adjusted at 1 mL with complete HAM's F12. Final concentrations were 10 ng/mL IL1α, 100 ng/mL trFGF-18 and 100 ng/mL anakinra and the total culture time was eight days. A complete medium change was performed after four days. N=4.
For cells treated with anakinra and trFGF-18 6 hours after the IL1α challenge: Chondrocytes were inoculated in a 24-well plate at 15,000 cells/well in 1 mL of complete HAM's F12 containing or not containing IL1α 10 ng/mL. After 6 hours the medium was removed and replaced with 0.25 mL trFGF-18 400 ng/mL and/or 0.25 mL of anakinra 400 ng/mL. In the challenged samples, 0.25 mL of IL1α at 40 ng/mL was also added to the cells. trFGF-18, anakinra and IL1α were all diluted in complete HAM's F12. The final volume in the culture well was adjusted at 1 mL with complete HAM's F12. Final concentrations were 10 ng/mL IL1α, 100 ng/mL trFGF-18 and 100 ng/mL anakinra and the total culture time was eight days. A complete medium change was performed after four days. N=6.
After eight days of culture, cells were harvested with accutase and resulting cell suspensions were analyzed for cell concentration and cell viability with a ViCell™ cell analyzer (from Beckman Coulter). Statistical analysis consisted in a 1-way ANOVA followed by a Dunnett post-hoc analysis.

RA patients = settings: cited from earlier work

| Molecule | knee caliper measurements ([1]; diclofenac 1 mg/kg orally with FGF-18, any other time point) | knee caliper measurements ([1]; diclofenac 1 mg/kg orally with FGF-18, day 42) | swelling scores vs vehicle controls ([1]; diclofenac 1 mg/kg orally with FGF-18) | knee caliper measurements ([1]; diclofenac 3 mg/kg orally with FGF-18, any other time point) | knee caliper measurements ([1]; diclofenac 3 mg/kg orally with FGF-18, day 42) | swelling scores vs vehicle controls ([1]; diclofenac 3 mg/kg orally with FGF-18) | knee swelling (clinical observations and caliper measurements) ([1]; diclofenac 1 or 3 mg/kg with FGF-18) | improvements in OA symptoms compared with placebo (OA symptoms) | pain versus placebo in OA (OA symptoms; anakinra 150 mg) | restoration of rhFGF-18 proliferative activity in IL1α-challenged chondrocytes [2] | restoration of rhFGF-18 proliferative activity in IL1α-challenged chondrocytes ([2]; listed as Anakinra) | effect on chondrocyte proliferation ([2]; anakinra alone, 100 ng/mL) | joint damage in RA patients (RA patients; Bresnihan, 2002, St. Clair) | pain in RA patients (RA patients; Mertens et al., 2009) |
| --- | --- | --- | --- | --- | --- | --- | --- | --- | --- | --- | --- | --- | --- | --- |
| O=C(O)Cc1ccccc1Nc1c(Cl)cccc1Cl [diclofenac, 2-(2,6-dichloranilino) phenylacetic acid] | not significantly affected | significantly reduced | significantly reduced | not significantly affected | significantly reduced | significantly reduced | significantly reduced | – | – | – | – | – | – | – |
| anakinra: recombinant, nonglycosylated form of human interleukin-1 receptor antagonist (IL-1Ra), SEQ ID NO: 3 | – | – | – | – | – | – | – | not significantly associated | a tendency toward pain reduction | fully block | fully restore | no effect | reduction in frequency and severity of joint damage | pain reduction |
